Experiments:
[1] = molecular target: T1, Cholecystokinin receptor type A (Rattus norvegicus, UniProt P30551); assay: Binding of [3H]propionyl-CCK-8 to Cholecystokinin type A receptor from rat pancreas
T1 sequence (P30551 whole entry): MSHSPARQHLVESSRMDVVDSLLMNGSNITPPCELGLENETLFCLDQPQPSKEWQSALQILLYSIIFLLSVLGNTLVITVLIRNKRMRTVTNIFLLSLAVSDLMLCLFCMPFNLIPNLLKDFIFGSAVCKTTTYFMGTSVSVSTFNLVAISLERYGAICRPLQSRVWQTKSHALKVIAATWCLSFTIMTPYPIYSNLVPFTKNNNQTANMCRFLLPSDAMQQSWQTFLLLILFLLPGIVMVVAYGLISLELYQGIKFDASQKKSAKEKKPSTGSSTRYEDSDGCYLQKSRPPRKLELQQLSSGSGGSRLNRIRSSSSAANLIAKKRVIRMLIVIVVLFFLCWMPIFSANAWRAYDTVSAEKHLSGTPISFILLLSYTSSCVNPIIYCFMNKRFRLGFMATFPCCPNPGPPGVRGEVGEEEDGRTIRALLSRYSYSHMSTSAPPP

[2] = molecular target: T2, Gastrin/cholecystokinin type B receptor (Rattus norvegicus, UniProt P30553); assay: Binding of [3H]propionyl-CCK-8 to Cholecystokinin type B receptor from rat cerebral cortex.; format: tissue-based
T2 sequence (P30553 whole entry): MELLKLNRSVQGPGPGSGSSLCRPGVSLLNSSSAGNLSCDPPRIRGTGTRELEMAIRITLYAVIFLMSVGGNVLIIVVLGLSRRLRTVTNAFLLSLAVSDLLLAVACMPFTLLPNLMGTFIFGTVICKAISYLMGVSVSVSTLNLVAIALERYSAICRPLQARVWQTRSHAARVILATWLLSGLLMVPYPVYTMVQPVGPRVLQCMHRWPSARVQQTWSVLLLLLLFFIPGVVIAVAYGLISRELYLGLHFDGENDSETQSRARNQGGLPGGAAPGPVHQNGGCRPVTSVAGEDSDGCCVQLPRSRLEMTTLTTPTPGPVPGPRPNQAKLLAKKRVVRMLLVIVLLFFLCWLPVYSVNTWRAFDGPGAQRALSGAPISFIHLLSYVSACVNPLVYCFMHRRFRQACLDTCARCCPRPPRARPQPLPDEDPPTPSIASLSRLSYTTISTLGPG

IC50 [1] | IC50 [2] | Structure (SMILES)
2350 nM | > 10000 nM | COC(=O)[C@@]1(Cc2ccccc2)C[C@@H]2[C@@H](NC(=O)[C@H](Cc3c[nH]c4ccccc34)NC(=O)OC(C)(C)C)CCCN2C1=O
> 10000 nM | > 10000 nM | COC(=O)[C@]1(Cc2ccccc2)C[C@H]2[C@H](NC(=O)[C@H](Cc3c[nH]c4ccccc34)NC(=O)OC(C)(C)C)CCCN2C1=O
1120 nM | 9 nM | CC1(C)[C@H]2CC[C@@]1(C)[C@H](OC(=O)N[C@](C)(Cc1c[nH]c3ccccc13)C(=O)NC[C@H](NC(=O)CCC(=O)O)c1ccccc1)C2
> 10000 nM | 3720 nM | COC(=O)[C@]1(Cc2ccccc2)C[C@@H]2[C@@H](NC(=O)[C@@H](Cc3c[nH]c4ccccc34)NC(=O)OC(C)(C)C)CCCN2C1=O
> 10000 nM | > 10000 nM | COC(=O)[C@@]1(Cc2ccccc2)C[C@H]2[C@H](NC(=O)[C@@H](Cc3c[nH]c4ccccc34)NC(=O)OC(C)(C)C)CCCN2C1=O
> 10000 nM | 3530 nM | CC(C)(C)OC(=O)N[C@@H](Cc1c[nH]c2ccccc12)C(=O)N[C@H]1CCCN2C(=O)[C@](Cc3ccccc3)(C(N)=O)C[C@H]12
> 10000 nM | > 10000 nM | COC(=O)[C@@]1(Cc2ccccc2)C[C@@H]2[C@@H](NC(=O)[C@@H](Cc3c[nH]c4ccccc34)NC(=O)OC(C)(C)C)CCCN2C1=O
> 10000 nM | 220 nM | COC(=O)[C@]1(Cc2ccccc2)C[C@@H]2[C@@H](NC(=O)[C@@H](Cc3c[nH]c4ccccc34)NC(=O)C34CC5CC(CC(C5)C3)C4)CCCN2C1=O
1020 nM | > 10000 nM | CC(C)(C)OC(=O)N[C@@H](Cc1c[nH]c2ccccc12)C(=O)N[C@H]1CCCN2C(=O)[C@@](Cc3ccccc3)(C(N)=O)C[C@H]12
> 10000 nM | 820 nM | CC(C)(C)OC(=O)N[C@H](Cc1c[nH]c2ccccc12)C(=O)N[C@H]1CCCN2C(=O)[C@](Cc3ccccc3)(C(N)=O)C[C@H]12
980 nM | 2190 nM | COC(=O)[C@@]1(Cc2ccccc2)C[C@H]2[C@H](NC(=O)[C@@H](Cc3c[nH]c4ccccc34)NC(=O)C34CC5CC(CC(C5)C3)C4)CCCN2C1=O

Reference: ChEMBL document CHEMBL1129019, “CCK-4 restricted analogues containing a 3-oxoindolizidine skeleton” (Bioorg Med Chem Lett, 1996)
